Laboratory results as given in ChEMBL document CHEMBL4806959, “Antagonistic peptides for frizzled-1 and frizzled-2” (2015).
Each block holds one compound with its values, some of them ahead of it. The source made the active and inactive calls. The rule behind the calls is not given here. Positions of bridges follow the written chain, without caps; N, C: chain ends. Residues, ends and D or L forms follow the SMILES beside them.

Key:
[1] = molecular target: T1, Frizzled-2 (Homo sapiens, UniProt Q14332); experiment: Antagonist activity at Wnt3a-stimulated frizzled-2 (unknown origin) expressed in human HEK293superTOP flash cells incubated for 24 hrs by luciferase reporter gene assay; type: functional, cell-based; settings: HEK293, filed as antagonist
T1 sequence (Q14332 24-565 limits assumed): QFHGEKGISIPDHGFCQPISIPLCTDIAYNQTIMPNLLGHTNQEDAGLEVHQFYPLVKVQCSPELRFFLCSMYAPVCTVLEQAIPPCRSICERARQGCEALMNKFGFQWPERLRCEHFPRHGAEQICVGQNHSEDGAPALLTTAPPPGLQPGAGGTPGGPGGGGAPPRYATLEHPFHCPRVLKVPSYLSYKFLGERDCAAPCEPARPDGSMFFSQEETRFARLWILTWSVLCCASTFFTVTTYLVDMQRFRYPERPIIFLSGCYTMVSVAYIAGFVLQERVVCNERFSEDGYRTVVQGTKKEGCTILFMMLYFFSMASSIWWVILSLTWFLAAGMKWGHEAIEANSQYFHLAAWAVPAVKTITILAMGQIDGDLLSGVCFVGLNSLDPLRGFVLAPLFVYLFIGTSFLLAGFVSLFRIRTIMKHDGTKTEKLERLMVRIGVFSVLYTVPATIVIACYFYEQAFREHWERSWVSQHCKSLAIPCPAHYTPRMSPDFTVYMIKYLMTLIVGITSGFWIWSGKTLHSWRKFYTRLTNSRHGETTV

[2] = system: Mus musculus; experiment: Cardioprotective activity against myocardial infarction Swiss mouse model assessed as ESV_L at 6 ug/kg/day, sc via osmotic pumps for 5 weeks by echocardiographic analysis (reference value: 0.179 +/-0.007 cm3); type: functional; settings: dose 6 µg/kg/day
[3] = system: Mus musculus; experiment: Cardioprotective activity against myocardial infarction Swiss mouse model assessed as increase in alpha-SMA protein expression in heart at 6 ug/kg/day, sc via osmotic pumps for 5 weeks by western blot analysis; type: functional, organism-based; settings: dose 6.0 µg/kg/day
[4] = organism: Rattus norvegicus; experiment: Selectivity index, ratio of IC50 for Wnt3a-stimulated rat frizzled-1 expressed in human HEK293superTOPFlash cells to IC50 for Wnt3a-stimulated rat frizzled-2 expressed in human HEK293superTOPFlash cells; type: cell-based
[5] = molecular target: Frizzled-5 (Homo sapiens) (UniProt Q13467); experiment: Antagonist activity at Wnt3a-stimulaed human frizzled-5 expressed in human HEK293superTOP flash cells at 10 nM incubated for 24 hrs by luciferase reporter gene assay; type: functional, cell-based; settings: HEK293
Frizzled-5 (Homo sapiens), sequence (Q13467 whole entry): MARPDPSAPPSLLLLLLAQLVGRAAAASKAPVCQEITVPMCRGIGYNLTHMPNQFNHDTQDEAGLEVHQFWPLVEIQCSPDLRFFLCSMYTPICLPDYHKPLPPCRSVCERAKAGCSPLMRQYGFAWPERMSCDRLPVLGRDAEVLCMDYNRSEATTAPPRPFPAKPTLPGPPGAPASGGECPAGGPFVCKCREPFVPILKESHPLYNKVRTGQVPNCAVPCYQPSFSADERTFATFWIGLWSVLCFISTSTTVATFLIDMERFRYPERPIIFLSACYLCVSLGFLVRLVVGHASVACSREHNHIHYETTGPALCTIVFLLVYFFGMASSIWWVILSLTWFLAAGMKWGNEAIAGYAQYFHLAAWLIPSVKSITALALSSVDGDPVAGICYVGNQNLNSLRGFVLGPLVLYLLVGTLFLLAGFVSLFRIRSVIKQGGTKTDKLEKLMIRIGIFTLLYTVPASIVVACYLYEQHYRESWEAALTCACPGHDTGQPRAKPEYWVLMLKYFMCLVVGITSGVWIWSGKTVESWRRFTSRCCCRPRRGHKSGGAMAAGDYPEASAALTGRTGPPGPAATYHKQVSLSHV

[6] = system: Mus musculus; experiment: Cardioprotective activity against myocardial infarction Swiss mouse model assessed as EDV_L at 6 ug/kg/day, sc via osmotic pumps for 5 weeks by echocardiographic analysis (reference value: 0.214 +/-0.02 cm3); type: functional; settings: dose 6 µg/kg/day
[7] = system: Mus musculus; experiment: Cardioprotective activity against myocardial infarction Swiss mouse model assessed as reduction in collagen level in infarct area at 6 ug/kg/day, sc via osmotic pumps for 5 weeks by immunohistochemical staining analysis; type: functional, organism-based; settings: dose 6.0 µg/kg/day
[8] = system: Mus musculus; experiment: Cardioprotective activity against myocardial infarction Swiss mouse model assessed as ratio of maximum negative slope to pressure of negative slope at 6 ug/kg/day, sc via osmotic pumps for 5 weeks by Millar pressure recording based analysis (reference value: 33.29 +/-1.14 1/sec); type: functional; settings: dose 6 µg/kg/day
[9] = system: Mus musculus; experiment: Cardioprotective activity against myocardial infarction Swiss mouse model assessed as LVAs at 6 ug/kg/day, sc via osmotic pumps for 5 weeks by echocardiographic analysis (reference value: 0.44 +/-0.01 cm2); type: functional; settings: dose 6 µg/kg/day
[10] = molecular target: Frizzled-2 (Rattus norvegicus) (UniProt Q08464); experiment: Agonist activity at rat frizzled-2 expressed in CHO cells by luciferase reporter gene assay; type: cell-based
Frizzled-2 (Rattus norvegicus), sequence (Q08464 29-570 limits assumed): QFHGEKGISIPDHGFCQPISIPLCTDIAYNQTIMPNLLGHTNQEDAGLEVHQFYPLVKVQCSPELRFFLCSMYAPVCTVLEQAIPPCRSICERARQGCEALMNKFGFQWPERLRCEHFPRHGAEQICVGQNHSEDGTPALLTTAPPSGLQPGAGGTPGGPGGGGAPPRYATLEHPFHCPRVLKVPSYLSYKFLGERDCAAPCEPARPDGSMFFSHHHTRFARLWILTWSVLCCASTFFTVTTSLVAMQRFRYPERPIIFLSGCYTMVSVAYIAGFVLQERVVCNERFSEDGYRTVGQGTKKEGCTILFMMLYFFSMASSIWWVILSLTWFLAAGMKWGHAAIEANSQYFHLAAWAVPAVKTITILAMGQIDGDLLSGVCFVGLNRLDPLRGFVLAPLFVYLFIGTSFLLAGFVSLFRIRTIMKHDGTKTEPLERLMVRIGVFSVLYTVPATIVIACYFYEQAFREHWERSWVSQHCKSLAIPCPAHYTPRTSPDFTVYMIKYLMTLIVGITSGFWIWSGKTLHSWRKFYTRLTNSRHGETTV

[11] = system: Mus musculus; experiment: Cardioprotective activity against myocardial infarction Swiss mouse model assessed as reduction in infarction expansion in heart at 6 ug/kg/day, sc via osmotic pumps for 5 weeks by macroscopic analysis; type: functional, organism-based; settings: dose 6.0 µg/kg/day
[12] = molecular target: Frizzled-2 (Rattus norvegicus) (UniProt Q08464); experiment: Agonist activity at rat frizzled-2 expressed in human HEK293superTOP flash cells by luciferase reporter gene assay; type: cell-based; settings: HEK293
[13] = system: Mus musculus; experiment: Cardioprotective activity against myocardial infarction Swiss mouse model assessed as ventricular dilation at 6 ug/kg/day, sc via osmotic pumps for 5 weeks by macroscopic analysis; type: functional, organism-based; settings: dose 6.0 µg/kg/day
[14] = system: Mus musculus; experiment: Cardioprotective activity against myocardial infarction Swiss mouse model assessed as animal mortality at 6 ug/kg/day, sc via osmotic pumps for 5 weeks (reference value: 35%); type: functional; settings: 840 h, at 6 µg/kg/day
[15] = molecular target: Frizzled-2 (Rattus norvegicus) (UniProt Q08464); experiment: Agonist activity at rat frizzled-2 expressed in African green monkey COS7 cells by luciferase reporter gene assay; type: cell-based
[16] = molecular target: Frizzled-1 (Rattus norvegicus) (UniProt Q08463); experiment: Agonist activity at rat frizzled-1 expressed in African green monkey COS7 cells by luciferase reporter gene assay; type: cell-based
Frizzled-1 (Rattus norvegicus), sequence (Q08463 whole entry): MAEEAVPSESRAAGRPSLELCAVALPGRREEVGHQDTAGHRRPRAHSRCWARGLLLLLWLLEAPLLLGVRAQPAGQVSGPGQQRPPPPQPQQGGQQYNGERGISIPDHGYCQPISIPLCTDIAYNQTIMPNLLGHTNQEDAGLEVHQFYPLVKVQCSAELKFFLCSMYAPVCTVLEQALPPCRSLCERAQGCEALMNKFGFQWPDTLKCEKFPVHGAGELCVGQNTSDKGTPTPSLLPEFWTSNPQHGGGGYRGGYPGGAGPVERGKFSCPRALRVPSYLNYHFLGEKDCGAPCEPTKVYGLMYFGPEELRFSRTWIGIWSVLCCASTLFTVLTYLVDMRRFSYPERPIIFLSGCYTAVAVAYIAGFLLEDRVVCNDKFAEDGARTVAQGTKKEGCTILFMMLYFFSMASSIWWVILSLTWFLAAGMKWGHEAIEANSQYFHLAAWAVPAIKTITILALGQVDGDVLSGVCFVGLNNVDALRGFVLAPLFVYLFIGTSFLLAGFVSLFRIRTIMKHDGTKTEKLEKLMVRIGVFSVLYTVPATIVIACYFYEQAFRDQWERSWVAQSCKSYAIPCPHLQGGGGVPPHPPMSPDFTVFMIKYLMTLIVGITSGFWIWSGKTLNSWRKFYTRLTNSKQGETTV

[17] = system: Mus musculus; experiment: Cardioprotective activity against myocardial infarction Swiss mouse model assessed as ratio of maximum positive slope to pressure of positive slope at 6 ug/kg/day, sc via osmotic pumps for 5 weeks by Millar pressure recording based analysis (reference value: 43.78 +/-1.93 1/sec); type: functional; settings: dose 6 µg/kg/day
[18] = molecular target: Frizzled-1 (Rattus norvegicus) (UniProt Q08463); experiment: Agonist activity at rat frizzled-1 expressed in CHO cells by luciferase reporter gene assay; type: cell-based
[19] = molecular target: Frizzled-1 (Homo sapiens) (UniProt Q9UP38); experiment: Antagonist activity at Wnt3a-stimulaed human frizzled-1 expressed in human HEK293superTOP flash cells incubated for 24 hrs by luciferase reporter gene assay; type: functional, cell-based; settings: HEK293, filed as antagonist
Frizzled-1 (Homo sapiens), sequence (Q9UP38 70-647 limits assumed): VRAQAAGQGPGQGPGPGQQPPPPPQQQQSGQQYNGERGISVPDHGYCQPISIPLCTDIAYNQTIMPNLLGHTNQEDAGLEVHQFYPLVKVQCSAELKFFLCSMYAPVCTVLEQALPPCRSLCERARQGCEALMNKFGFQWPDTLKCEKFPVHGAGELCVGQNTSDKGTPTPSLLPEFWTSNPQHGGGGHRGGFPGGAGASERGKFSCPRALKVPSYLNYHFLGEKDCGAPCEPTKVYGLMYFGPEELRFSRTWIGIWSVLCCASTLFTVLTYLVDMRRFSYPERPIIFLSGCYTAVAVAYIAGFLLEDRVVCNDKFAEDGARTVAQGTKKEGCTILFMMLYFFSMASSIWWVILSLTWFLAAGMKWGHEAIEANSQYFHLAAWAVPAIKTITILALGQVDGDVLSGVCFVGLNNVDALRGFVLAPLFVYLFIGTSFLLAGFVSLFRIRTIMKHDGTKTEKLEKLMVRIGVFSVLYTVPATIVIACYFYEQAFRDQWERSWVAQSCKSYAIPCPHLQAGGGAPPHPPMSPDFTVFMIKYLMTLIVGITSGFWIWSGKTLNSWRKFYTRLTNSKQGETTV

[20] = molecular target: Frizzled-1 (Mus musculus) (UniProt O70421); experiment: Antagonist activity at Wnt3a-stimulaed mouse frizzled-1 expressed in human HEK293superTOP flash cells incubated for 24 hrs by luciferase reporter gene assay; type: cell-based; settings: HEK293, filed as antagonist
Frizzled-1 (Mus musculus), sequence (O70421 whole entry, looked up): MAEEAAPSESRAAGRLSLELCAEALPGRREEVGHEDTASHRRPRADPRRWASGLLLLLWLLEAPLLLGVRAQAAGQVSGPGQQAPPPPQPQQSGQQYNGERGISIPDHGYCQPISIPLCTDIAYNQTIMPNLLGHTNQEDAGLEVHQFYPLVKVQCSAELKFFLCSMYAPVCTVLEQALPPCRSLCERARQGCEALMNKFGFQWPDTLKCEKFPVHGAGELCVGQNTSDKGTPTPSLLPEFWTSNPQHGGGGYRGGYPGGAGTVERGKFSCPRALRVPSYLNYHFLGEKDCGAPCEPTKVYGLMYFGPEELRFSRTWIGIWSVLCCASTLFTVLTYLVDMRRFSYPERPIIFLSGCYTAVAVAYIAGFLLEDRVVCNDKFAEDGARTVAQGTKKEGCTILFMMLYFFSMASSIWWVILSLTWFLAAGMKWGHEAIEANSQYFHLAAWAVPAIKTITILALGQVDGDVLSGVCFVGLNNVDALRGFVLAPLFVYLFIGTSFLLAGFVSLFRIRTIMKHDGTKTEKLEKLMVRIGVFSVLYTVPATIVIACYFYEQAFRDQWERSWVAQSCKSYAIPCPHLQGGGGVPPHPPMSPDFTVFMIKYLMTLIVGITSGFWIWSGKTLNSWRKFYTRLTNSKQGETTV

[21] = system: Mus musculus; experiment: Cardioprotective activity against myocardial infarction Swiss mouse model assessed as increase in infarct area thickness in heart at 6 ug/kg/day, sc via osmotic pumps for 2 to 5 weeks by immunohistochemical staining analysis; type: functional, organism-based; settings: dose 6.0 µg/kg/day, time 2-5 weeks
[22] = system: Mus musculus; experiment: Cardioprotective activity against myocardial infarction Swiss mouse model assessed as increase in amount of blood vessels in heart at 6 ug/kg/day, sc via osmotic pumps for 5 weeks by immunohistochemical staining analysis; type: functional, organism-based; settings: dose 6.0 µg/kg/day
[23] = system: Mus musculus; experiment: Cardioprotective activity against myocardial infarction Swiss mouse model assessed as reduction in infarct area in heart at 6 ug/kg/day, sc via osmotic pumps for 2 to 5 weeks by immunohistochemical staining analysis; type: functional, organism-based; settings: dose 6.0 µg/kg/day, time 2-5 weeks
[24] = system: Mus musculus; experiment: Cardioprotective activity against myocardial infarction Swiss mouse model assessed as reduction in wet lung weight at 6 ug/kg/day, sc via osmotic pumps for 5 weeks; type: functional, organism-based; settings: dose 6.0 µg/kg/day
[25] = system: Mus musculus; experiment: Cardioprotective activity against myocardial infarction Swiss mouse model assessed as increase in myofibroblast number at 6 ug/kg/day, sc via osmotic pumps for 2 weeks by immunohistochemical staining analysis relative to control; type: functional; settings: dose 6 µg/kg/day
[26] = molecular target: Frizzled-2 (Mus musculus) (UniProt Q9JIP6); experiment: Antagonist activity at Wnt3a-stimulaed mouse frizzled-2 expressed in human HEK293superTOP flash cells incubated for 24 hrs by luciferase reporter gene assay; type: cell-based; settings: HEK293, filed as antagonist
Frizzled-2 (Mus musculus), sequence (Q9JIP6 whole entry, looked up): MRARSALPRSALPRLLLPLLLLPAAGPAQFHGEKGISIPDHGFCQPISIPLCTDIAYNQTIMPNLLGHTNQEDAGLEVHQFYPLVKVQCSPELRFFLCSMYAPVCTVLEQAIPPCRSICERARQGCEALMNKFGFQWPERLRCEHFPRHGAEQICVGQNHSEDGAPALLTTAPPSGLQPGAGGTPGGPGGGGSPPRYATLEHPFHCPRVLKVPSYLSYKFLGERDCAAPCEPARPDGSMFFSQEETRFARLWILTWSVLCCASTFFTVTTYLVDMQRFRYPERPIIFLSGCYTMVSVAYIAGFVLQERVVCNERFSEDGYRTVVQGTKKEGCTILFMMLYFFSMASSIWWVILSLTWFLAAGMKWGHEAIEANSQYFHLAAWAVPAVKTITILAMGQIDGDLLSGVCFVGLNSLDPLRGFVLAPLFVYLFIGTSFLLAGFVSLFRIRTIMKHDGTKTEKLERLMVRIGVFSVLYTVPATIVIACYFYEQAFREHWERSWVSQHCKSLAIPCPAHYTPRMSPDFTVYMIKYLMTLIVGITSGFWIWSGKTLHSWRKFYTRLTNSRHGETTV

[27] = molecular target: T1, Frizzled-2; experiment: Antagonist activity at Wnt3a-stimulaed human frizzled-2 expressed in human HEK293superTOP flash cells incubated for 24 hrs by luciferase reporter gene assay; type: functional, cell-based; settings: HEK293, filed as antagonist
[28] = system: Mus musculus; experiment: Cardioprotective activity against myocardial infarction Swiss mouse model assessed as increase in ejection fraction at 6 ug/kg/day, sc via osmotic pumps for 5 weeks by echocardiographic analysis relative to control; type: functional; settings: dose 6 µg/kg/day
[29] = system: Mus musculus; experiment: Cardioprotective activity against myocardial infarction Swiss mouse model assessed as SV_L at 6 ug/kg/day, sc via osmotic pumps for 5 weeks by echocardiographic analysis (reference value: 0.035 +/-0.005 cm3); type: functional; settings: dose 6 µg/kg/day
[30] = molecular target: Frizzled-1 (Rattus norvegicus) (UniProt Q08463); experiment: Agonist activity at rat frizzled-1 expressed in human HEK293superTOP flash cells by luciferase reporter gene assay; type: cell-based; settings: HEK293
[31] = molecular target: T2, Frizzled-4 (Homo sapiens) (UniProt Q9ULV1); experiment: Antagonist activity at Wnt3a-stimulaed frizzled-4 (unknown origin) expressed in human HEK293superTOP flash cells incubated for 24 hrs by luciferase reporter gene assay; type: functional, cell-based; settings: HEK293
T2 sequence (whole entry): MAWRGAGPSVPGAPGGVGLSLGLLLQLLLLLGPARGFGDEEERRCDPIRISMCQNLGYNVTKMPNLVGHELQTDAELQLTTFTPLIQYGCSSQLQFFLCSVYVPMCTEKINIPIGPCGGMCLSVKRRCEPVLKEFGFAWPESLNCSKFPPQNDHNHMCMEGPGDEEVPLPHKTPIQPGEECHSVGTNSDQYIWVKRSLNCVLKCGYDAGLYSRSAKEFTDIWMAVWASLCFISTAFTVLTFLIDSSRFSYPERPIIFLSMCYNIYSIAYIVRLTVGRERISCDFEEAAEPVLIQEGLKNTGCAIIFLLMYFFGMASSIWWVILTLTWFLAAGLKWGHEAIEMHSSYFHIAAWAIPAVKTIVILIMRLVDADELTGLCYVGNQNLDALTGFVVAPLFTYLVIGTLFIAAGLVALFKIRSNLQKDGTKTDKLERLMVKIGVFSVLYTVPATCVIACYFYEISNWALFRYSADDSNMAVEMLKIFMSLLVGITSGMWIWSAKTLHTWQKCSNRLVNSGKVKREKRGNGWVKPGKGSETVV

[32] = system: Mus musculus; experiment: Cardioprotective activity against myocardial infarction Swiss mouse model assessed as increase in alpha-SMA gene expression in heart at 6 ug/kg/day, sc via osmotic pumps for 5 weeks by qPCR analysis; type: functional, organism-based; settings: dose 6.0 µg/kg/day
[33] = system: Mus musculus; experiment: Cardioprotective activity against myocardial infarction Swiss mouse model assessed as LVAd at 6 ug/kg/day, sc via osmotic pumps for 5 weeks by echocardiographic analysis (reference value: 0.5 +/-0.01 cm2); type: functional; settings: dose 6 µg/kg/day
[34] = system: Mus musculus; experiment: Cardioprotective activity against myocardial infarction Swiss mouse model assessed as increase in myofibroblast number at 6 ug/kg/day, sc via osmotic pumps for 5 weeks by immunohistochemical staining analysis; type: functional, organism-based; settings: dose 6.0 µg/kg/day
[35] = molecular target: T1, Frizzled-2; experiment: Antagonist activity at frizzled-2 (unknown origin) expressed in human HEK293superTOP flash cells incubated for 24 hrs by luciferase reporter gene assay; type: functional, cell-based; settings: HEK293
[36] = molecular target: T2, Frizzled-4 (Homo sapiens); experiment: Antagonist activity at Wnt3a-stimulaed human frizzled-4 expressed in human HEK293superTOP flash cells at 10 nM incubated for 24 hrs by luciferase reporter gene assay; type: functional, cell-based; settings: HEK293
[37] = molecular target: Frizzled-5 (Homo sapiens) (UniProt Q13467); experiment: Antagonist activity at Wnt3a-stimulaed frizzled-5 (unknown origin) expressed in human HEK293superTOP flash cells incubated for 24 hrs by luciferase reporter gene assay; type: functional, cell-based; settings: HEK293
[38] = molecular target: T2, Frizzled-4 (Homo sapiens); experiment: Agonist activity at frizzled-4 (unknown origin) expressed in human HEK293superTOP flash cells by luciferase reporter gene assay; type: functional, cell-based; settings: HEK293
[39] = molecular target: Frizzled-5 (Homo sapiens) (UniProt Q13467); experiment: Agonist activity at frizzled-5 (unknown origin) expressed in human HEK293superTOP flash cells by luciferase reporter gene assay; type: functional, cell-based; settings: HEK293

SMILES: CSCC[C@H](NC(=O)CNC(=O)[C@H](CCC(=O)O)NC(=O)[C@H](CO)NC(=O)[C@@H](NC(=O)[C@H](CCCCN)NC(=O)[C@H](CC(N)=O)NC(=O)[C@H](CS)NC(C)=O)[C@@H](C)O)C(=O)N[C@@H](CC(=O)O)C(=O)NCC(=O)N[C@@H](CS)C(=O)N[C@@H](CCC(=O)O)C(=O)N[C@@H](CC(C)C)C(N)=O (Ac-CNKTSEGMDGCEL-NH2)
inhibition [1]: Dose-Dependent Effect
Activity [2]: 0.09 cm3
Activity [3]: Active
Ratio IC50 [4]: 100
inhibition [5]: inactive
Activity [6]: 0.132 cm3
Activity [7]: Active
Activity [8]: 32.84 s⁻¹
Activity [9]: 0.3 cm2
Activity [10]: inactive
Activity [11]: Active
Activity [12]: inactive
Activity [13]: Active
mortality at 0.006 mg/kg/day [14]: 0%
Activity [15]: inactive
Activity [16]: inactive
Activity [17]: 69.13 s⁻¹
Activity [18]: inactive
inhibition [19]: Active
inhibition [20]: Active
Activity [21]: Active
Activity [22]: Active
Activity [23]: Active
Activity [24]: Active
fold change (FC) [25]: >4
inhibition [26]: Active
inhibition [27]: Active
fold change (FC) [28]: 2
Activity [29]: 0.041 cm3
Activity [30]: inactive
inhibition [31]: inactive
Activity [32]: Active
Activity [33]: 0.38 cm2
Activity [34]: Active
inhibition [35]: inactive
inhibition [36]: inactive
inhibition [37]: inactive

Activity [38]: inactive
Activity [39]: inactive
SMILES: CSCC[C@@H]1NC(=O)CNC(=O)[C@H](CCC(=O)O)NC(=O)[C@H](CO)NC(=O)[C@H]([C@@H](C)O)NC(=O)[C@H](CCCCN)NC(=O)[C@H](CC(N)=O)NC(=O)[C@@H](NC(C)=O)CSSC[C@@H](C(=O)N[C@@H](CCC(=O)O)C(=O)N[C@@H](CC(C)C)C(N)=O)NC(=O)CNC(=O)[C@H](CC(=O)O)NC1=O (Ac-CNKTSEGMDGCEL-NH2; disulfide 1-11)
